According to patent US20130096105A1, “ArylSulfonamide Based Matrix Metalloprotease Inhibitors” (NOVARTIS AG, priority 2008, published 2013):

What was measured:
Gelatinase (MMP-2) = molecular target: T1, Gelatinase (MMP-2) (Homo sapiens, UniProt P08253); test: Gelatinase (MMP-2) inhibitory activity, fluorogenic peptide substrate cleavage; assay type: biochemical; conditions: read-out: MMP02 IC50
T1 sequence (P08253 110-660): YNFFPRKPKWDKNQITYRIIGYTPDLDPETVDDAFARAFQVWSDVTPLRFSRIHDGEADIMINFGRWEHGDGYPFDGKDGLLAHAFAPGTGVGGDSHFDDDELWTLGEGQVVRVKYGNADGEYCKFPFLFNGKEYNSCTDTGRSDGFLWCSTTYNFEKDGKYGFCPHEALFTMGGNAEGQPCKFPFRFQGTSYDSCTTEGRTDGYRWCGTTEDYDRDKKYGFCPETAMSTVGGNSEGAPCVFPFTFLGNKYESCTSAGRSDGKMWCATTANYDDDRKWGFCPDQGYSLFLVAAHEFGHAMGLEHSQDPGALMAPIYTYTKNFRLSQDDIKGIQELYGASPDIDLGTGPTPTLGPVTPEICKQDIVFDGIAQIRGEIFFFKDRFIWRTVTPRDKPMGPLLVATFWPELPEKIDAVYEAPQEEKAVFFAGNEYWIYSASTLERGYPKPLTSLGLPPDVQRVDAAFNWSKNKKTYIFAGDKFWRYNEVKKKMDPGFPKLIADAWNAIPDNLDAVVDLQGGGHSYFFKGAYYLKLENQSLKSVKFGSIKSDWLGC
Outline: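 Fluorogenic assay with MCA-Lys-Pro-Leu-Gly-Leu-Dpa-Ala-Arg-NH2 at 5 μM in Tris-Cl pH 7.5 buffer with ZnCl2, CaCl2, Brij-35 and 1.0% DMSO, 20-25 °C. Enzyme preincubated with inhibitor 60 min; fluorescence (ex 325/em 405 nm) read 60 min after substrate addition. IC50 relative to uninhibited control.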

Collagenase-3 (MMP-13) = Collagenase-3 (MMP-13) (Homo sapiens, UniProt P45452); test: Collagenase-3 (MMP-13) inhibitory activity, fluorogenic peptide substrate cleavage; assay type: biochemical; conditions: read-out: MMP13 IC50
Outline: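 Recombinant pro-MMP-13 activated with 1 mM APMA; inhibitor preincubated 60 min, then 5 μM MCA-Lys-Pro-Leu-Gly-Leu-Dpa-Ala-Arg-NH2 added in Tris-Cl pH 7.5 buffer with Zn2+, Ca2+, Brij-35, 1.0% DMSO, 20-25 °C. Fluorescence (ex 325/em 405 nm) read after 60 min; IC50 versus uninhibited control.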

Row | SMILES | melting point [°C] | IC50 (Gelatinase (MMP-2)) [µM] | IC50 (Collagenase-3 (MMP-13)) [µM]
1 | NS(=O)(=O)c1cc(C(=O)c2ccc(-c3ccc4ccccc4c3)cc2)ccc1Cl [Example 38, 2-Chloro-5-(4-naphthalen-2-yl-benzoyl)-benzenesulfonamide] | 193 to 195 | 14.5 | 8.58
2 | NS(=O)(=O)c1cc(C(=O)c2ccc(-c3cccnc3)cc2)ccc1Cl [Example 41, 2-Chloro-5-(4-pyridin-3-yl-benzoyl)-benzenesulfonamide] | 190 to 192 | > 9 | 7.52
3 | NS(=O)(=O)c1cc(C(=O)c2ccc(C(=O)N3CCCC3)cc2)ccc1Cl [Example 53, 2-Chloro-5-[4-(pyrrolidine-1-carbonyl)-benzoyl]-benzenesulfonamide] | 146 to 148 | > 30 | > 30
4 | Cc1cccc(-c2ccc(C(=O)c3ccc(Cl)c(S(N)(=O)=O)c3)cc2)c1 [Example 60, 2-Chloro-5-(3′-methyl-biphenyl-4-carbonyl)-benzenesulfonamide] | 176 to 178 | 6.31 | 5.44
5 | Nc1cccc(-c2ccc(C(=O)c3ccc(Cl)c(S(N)(=O)=O)c3)cc2)c1 [Example 69, 5-(3′-Amino-biphenyl-4-carbonyl)-2-chloro-benzenesulfonamide] | 228 to 230 | 1.37 | 2.41
6 | NS(=O)(=O)c1cc(C(=O)c2ccc(-c3cccc(C(F)(F)F)c3)cc2)ccc1Cl [Example 75, 2-Chloro-5-(3′-trifluoromethyl-biphenyl-4-carbonyl)-benzenesulfonamide] | 75 to 77 | > 30 | 25.9
7 | NS(=O)(=O)c1cc(C(=O)c2ccc3c(c2)CCN3)ccc1Cl [Example 110, 2-Chloro-5-(2,3-dihydro-1H-indole-5-carbonyl)-benzenesulfonamide] | 55 to 56 | 12 | 16.1
8 | NS(=O)(=O)c1cc(C(=O)c2ccc3[nH]ccc3c2)ccc1Cl [Example 116, 2-Chloro-5-(1H-indole-5-carbonyl)-benzenesulfonamide] | 65 to 66 | 15.4 | 15.3
9 | Cc1cc(-c2c[nH]c3cc(C(=O)c4ccc(C)c(S(N)(=O)=O)c4)ccc23)ccn1 [Example 147, 2-Methyl-5-[3-(2-methyl-pyridin-4-yl)-1H-indole-6-carbonyl]-benzenesulfonamide] | – | 2.4 | 0.02

Second part, the compound after the results:

Row | melting point [°C] | IC50 (Gelatinase (MMP-2)) [µM] | IC50 (Collagenase-3 (MMP-13)) [µM] | SMILES
10 | 119 to 122 | 1.92 | 2.49 | COc1ccc(C(=O)c2cccc(S(N)(=O)=O)c2)cc1 [Example 1, 3-(4-Methoxy-benzoyl)-benzenesulfonamide]
11 | 156 to 158 | 5.18 | 2.02 | COc1ccc(C(=O)c2ccc(Cl)c(S(N)(=O)=O)c2)cc1 [Example 3, 2-Chloro-5-(4-methoxy-benzoyl)-benzenesulfonamide]
12 | 147 to 149 | 10.4 | 12.4 | C#Cc1ccc(C(=O)c2ccc(Cl)c(S(N)(=O)=O)c2)cc1 [Example 31, 2-Chloro-5-(4-ethynyl-benzoyl)-benzenesulfonamide]
13 | 206 to 208 | 17.3 | 11.1 | NS(=O)(=O)c1cc(C(=O)c2ccc(O)c(F)c2)ccc1Cl [Example 47, 2-Chloro-5-(3-fluoro-4-hydroxy-benzoyl)-benzenesulfonamide]
14 | 183 to 185 | 24.3 | 21.3 | NS(=O)(=O)c1cc(C(=O)c2ccc(O)cc2F)ccc1Cl [Example 50, 2-Chloro-5-(2-fluoro-4-hydroxy-benzoyl)-benzenesulfonamide]
15 | – | 0.24 | 0.2 | NS(=O)(=O)c1cccc(C(=O)c2ccc3cc[nH]c3c2)c1 [Example 146, 3-(1H-Indole-6-carbonyl)-benzenesulfonamide]
